Measurements published in EP4428121A1, “MODULATORS OF SORTILIN ACTIVITY” (Vesper Bio Aps, priority 2023, dated 2024).

Columns and labels:
Human (6-His)Sortilin = target: T1, Human (6-His)Sortilin (Homo sapiens, UniProt Q99523); test: Human Sortilin GCI (Grating-Coupled Interferometry) binding assay; conditions: Creoptix WAVE-RAPID, single concentration (usually 1 µM, 10 µM or 100 µM), immobilised Human (6-His)Sortilin, 1:1 kinetic binding model
T1 construct: purchased RnD Systems
T1 sequence (Q99523 78-755 limits assumed): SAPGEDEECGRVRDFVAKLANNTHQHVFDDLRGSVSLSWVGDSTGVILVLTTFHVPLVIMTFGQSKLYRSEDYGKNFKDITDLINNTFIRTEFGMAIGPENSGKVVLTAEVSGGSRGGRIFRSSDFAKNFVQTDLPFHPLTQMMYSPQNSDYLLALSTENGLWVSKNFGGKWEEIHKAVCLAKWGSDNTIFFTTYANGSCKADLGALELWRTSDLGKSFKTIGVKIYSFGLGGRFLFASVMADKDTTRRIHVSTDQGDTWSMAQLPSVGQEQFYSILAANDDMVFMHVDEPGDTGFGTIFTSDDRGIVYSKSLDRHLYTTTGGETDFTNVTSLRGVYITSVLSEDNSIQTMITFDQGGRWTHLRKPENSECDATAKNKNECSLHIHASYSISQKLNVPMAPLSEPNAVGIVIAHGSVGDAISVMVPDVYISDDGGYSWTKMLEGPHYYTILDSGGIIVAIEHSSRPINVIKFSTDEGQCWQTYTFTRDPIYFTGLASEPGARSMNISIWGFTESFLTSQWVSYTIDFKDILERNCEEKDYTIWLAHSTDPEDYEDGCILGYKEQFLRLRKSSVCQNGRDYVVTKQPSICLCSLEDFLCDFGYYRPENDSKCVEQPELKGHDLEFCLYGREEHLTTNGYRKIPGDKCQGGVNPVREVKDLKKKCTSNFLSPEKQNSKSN

h-Sortilin = target: T2, h-Sortilin (Homo sapiens, UniProt Q99523); test: Neurotensin scintillation proximity assay (SPA); conditions: displacement of [3H]-neurotensin binding to h-Sortilin; 150 nM 6his-Sortilin, 5 nM [3H]-Neurotensin; average of at least 2 determinations
T2 sequence (Q99523 78-831): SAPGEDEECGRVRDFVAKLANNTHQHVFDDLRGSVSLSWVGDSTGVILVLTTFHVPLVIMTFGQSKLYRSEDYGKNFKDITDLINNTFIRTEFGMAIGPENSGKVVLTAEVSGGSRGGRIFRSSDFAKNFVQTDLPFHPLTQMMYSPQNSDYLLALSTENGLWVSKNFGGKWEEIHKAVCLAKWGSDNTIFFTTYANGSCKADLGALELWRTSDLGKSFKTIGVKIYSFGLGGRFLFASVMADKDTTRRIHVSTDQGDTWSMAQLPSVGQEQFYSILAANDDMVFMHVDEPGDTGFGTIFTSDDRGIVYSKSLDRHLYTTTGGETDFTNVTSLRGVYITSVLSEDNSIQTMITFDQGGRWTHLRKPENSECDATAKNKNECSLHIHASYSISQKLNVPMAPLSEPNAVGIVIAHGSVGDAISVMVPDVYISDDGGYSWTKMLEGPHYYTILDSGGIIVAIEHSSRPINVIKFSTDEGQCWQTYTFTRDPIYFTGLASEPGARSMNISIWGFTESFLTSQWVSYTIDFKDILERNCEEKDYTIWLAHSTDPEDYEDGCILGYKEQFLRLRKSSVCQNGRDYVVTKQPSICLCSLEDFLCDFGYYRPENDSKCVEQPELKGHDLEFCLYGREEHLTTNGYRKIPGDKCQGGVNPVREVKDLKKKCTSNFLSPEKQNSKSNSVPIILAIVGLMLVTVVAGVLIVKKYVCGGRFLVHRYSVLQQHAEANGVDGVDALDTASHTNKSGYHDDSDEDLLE
Experimental: NTS, which is a 13 amino acid neuropeptide, is a sortilin ligand.
Compound affinity was determined by measuring the displacement of [^3H]-neurotensin binding to h-Sortilin in SPA format. Total volume of 40 µl in 50 mM HEPES pH 7.4 assay buffer containing 100 mM NaCl, 2.0 mM CaCl2, 0.1% BSA and 0.1% Tween-20. Compound pre-incubation for 30 minutes at room temperature with 150 nM of 6his-Sortilin before 5 nM [3H]-Neurotensin and Ni chelate imaging beads (Perkin Elmer) were added, after 6 hours the plate was read on a ViewLux with 360 s exposure time. Dose-response evaluation of compounds was performed with 8 concentrations of drugs (covering 3 decades). IC50 values were calculated by nonlinear regression using the sigmoid concentration-response (variable slope) using CDD Vault software. All values reported are average of at least 2 determinations.

| Compound | Kd (Human (6-His)Sortilin) | IC50 (h-Sortilin) |
| --- | --- | --- |
| CC(C)(C)CC(Nc1cccnc1)c1nn[nH]n1 (racemic) [Example 62, N-3-pyridyl[3,3-dimethyl-1-(2H-tetraazol-5-yl)butyl]amine] | 32100 nM | – |
| CC(C)CC(Nc1ccccn1)c1nn[nH]n1 (racemic) [Example 66, [3-methyl-1-(2H-tetraazol-5-yl)butyl]-2-pyridylamine] | 179000 nM | – |
| CC(C)(C)CCC(Nc1ccccn1)c1nn[nH]n1 (racemic) [Example 68, N-2-pyridyl[4,4-dimethyl-1-(2H-tetraazol-5-yl)pentyl]amine] | 7570 nM | 10000 nM |
| CC(C)(C)CCC(Nc1cccnc1)c1nn[nH]n1 (racemic) [Example 69, N-3-pyridyl[4,4-dimethyl-1-(2H-tetraazol-5-yl)pentyl]amine] | 1800 nM | 10000 nM |
| CC(C)(C)CC(Nc1ncnc2ccccc12)c1nn[nH]n1 (racemic) [Example 77, [3,3-dimethyl-1-(2H-tetraazol-5-yl)butyl]-4-quinazolinylamine] | 5410 nM | – |
| COc1ccc2ncnc(NC(CCC(C)(C)C)c3nn[nH]n3)c2c1 (racemic) [Example 78, [4,4-dimethyl-1-(2H-tetraazol-5-yl)pentyl](6-methoxy-4-quinazolinyl)amine] | 1490 nM | – |
| COc1ccc2ncnc(NC(CCC(C)C)c3nn[nH]n3)c2c1 (racemic) [Example 79, [4-methyl-1-(2H-tetraazol-5-yl)pentyl](6-methoxy-4-quinazolinyl)amine] | 19500 nM | – |
| CC(C)(C)CCC(Nc1ncnc2cc(F)ccc12)c1nn[nH]n1 (racemic) [Example 82, [4,4-dimethyl-1-(2H-tetraazol-5-yl)pentyl](7-fluoro-4-quinazolinyl)amine] | 316 nM | – |
| Cc1ccc2ncnc(NC(CCC(C)(C)C)c3nn[nH]n3)c2c1 (racemic) [Example 83, [4,4-dimethyl-1-(2H-tetraazol-5-yl)pentyl](6-methyl-4-quinazolinyl)amine] | 251 nM | – |
| Cc1ccc2c(NC(CCC(C)(C)C)c3nn[nH]n3)ncnc2c1 (racemic) [Example 84, [4,4-dimethyl-1-(2H-tetraazol-5-yl)pentyl](7-methyl-4-quinazolinyl)amine] | 461 nM | – |
| CC(C)(C)CCC(Nc1ncnc2ccc(C(F)(F)F)cc12)c1nn[nH]n1 (racemic) [Example 86, [4,4-dimethyl-1-(2H-tetraazol-5-yl)pentyl][6-(trifluoromethyl)-4-quinazolinyl]amine] | 1490 nM | – |
| CC(C)CC(Nc1ncnc2ccccc12)c1nn[nH]n1 (racemic) [Example 103, [3-methyl-1-(2H-tetraazol-5-yl)butyl]-4-quinazolinylamine] | 25500 nM | – |
| CC(C)CC(Nc1ccncc1)c1nnn[nH]1 (racemic) [Example 104, N-(3-methyl-1-(1H-tetrazol-5-yl)butyl)pyridin-4-amine] | 74200 nM | – |
| CC(C)(C)CC[C@H](Nc1ccc2ccccc2n1)c1nn[nH]n1 (single isomer, unassigned) [Example 96] | 912 nM | – |
| CC(C)(C)CC[C@H](Nc1cnccn1)C(=O)O [Example 4, (S)-5,5-dimethyl-2-(2-pyrazinylamino)hexanoic acid] | 5570 nM | 1080 nM |
| CC(C)(C)CC[C@H](Nc1ncccn1)C(=O)O [Example 5, (S)-5,5-dimethyl-2-(2-pyrimidinylamino)hexanoic acid] | 13200 nM | 1190 nM |
| CC(C)(C)CC[C@H](Nc1cncnc1)C(=O)O [Example 6, (S)-5,5-dimethyl-2-(5-pyrimidinylamino)hexanoic acid] | 4050 nM | 1240 nM |
| CC(C)(C)CC[C@H](Nc1ccncn1)C(=O)O [Example 7, (S)-5,5-dimethyl-2-(4-pyrimidinylamino)hexanoic acid] | 8280 nM | 1140 nM |
| Cc1nccc(N[C@@H](CCC(C)(C)C)C(=O)O)n1 [Example 23, (S)-5,5-dimethyl-2-(2-methyl-4-pyrimidinylamino)hexanoic acid] | 108 nM | 1310 nM |
| Cc1cc(N[C@@H](CCC(C)(C)C)C(=O)O)nc(C)n1 [Example 25, (S)-2-(2,6-dimethyl-4-pyrimidinylamino)-5,5-dimethylhexanoic acid] | 499 nM | 1560 nM |
| CC(C)(C)CC[C@H](Nc1cncc2ccccc12)C(=O)O [Example 29, (S)-2-(isoquinolin-4-ylamino)-5,5-dimethylhexanoic acid] | 57.8 nM | – |

Continued by falling Kd (Human (6-His)Sortilin), values first:

| Kd (Human (6-His)Sortilin) | IC50 (h-Sortilin) | Compound |
| --- | --- | --- |
| 187000 nM | – | CC(C)CC(Nc1ccncn1)c1nn[nH]n1 (racemic) [Example 105, [3-methyl-1-(2H-tetraazol-5-yl)butyl]-4-pyrimidinylamine] |
| 98600 nM | – | CC(C)CC(Nc1ncccn1)c1nn[nH]n1 (racemic) [Example 65, [3-methyl-1-(2H-tetraazol-5-yl)butyl]-2-pyrimidinylamine] |
| 18300 nM | – | CC(C)CCC(Nc1ncnc2ccccc12)c1nnn[nH]1 (racemic) [Example 101, N-(4-methyl-1-(1H-tetrazol-5-yl)pentyl)quinazolin-4-amine] |
| 8710 nM | – | CC(C)CCC(Nc1cncc2ccccc12)c1nn[nH]n1 (racemic) [Example 64, [4-methyl-1-(2H-tetraazol-5-yl)pentyl]-4-isoquinolylamine] |
| 6220 nM | – | CC(C)(C)CC[C@@H](Nc1cccnc1)c1nn[nH]n1 (single isomer, unassigned) [Example 100] |
| 6070 nM | – | CC(C)(C)CC[C@@H](Nc1ccc2ccccc2n1)c1nn[nH]n1 (single isomer, unassigned) [Example 95] |
| 3880 nM | – | Cc1ccc2ncnc(NC(CCC(C)C)c3nn[nH]n3)c2c1 (racemic) [Example 80, [4-methyl-1-(2H-tetraazol-5-yl)pentyl](6-methyl-4-quinazolinyl)amine] |
| 2840 nM | – | N-phenyl[4,4-dimethyl-1-(2H-tetraazol-5-yl)pentyl]amine [Example 39] |
| 2230 nM | 2200 nM | CC(C)(C)CC[C@H](Nc1ccccn1)C(=O)O [Example 2, (S)-5,5-dimethyl-2-(2-pyridylamino)hexanoic acid] |
| 2220 nM | – | CC(C)CCC(Nc1ncnc2ccc(F)cc12)c1nn[nH]n1 (racemic) [Example 81, [4-methyl-1-(2H-tetraazol-5-yl)pentyl](6-fluoro-4-quinazolinyl)amine] |
| 1560 nM | – | CC(C)(C)CC[C@H](Nc1cccnc1)c1nn[nH]n1 (single isomer, unassigned) [Example 99] |
| 429 nM | 2870 nM | Cc1cc(N[C@@H](CCC(C)(C)C)C(=O)O)ncn1 [Example 24, (S)-5,5-dimethyl-2-(6-methyl-4-pyrimidinylamino)hexanoic acid] |
| 426 nM | – | CC(C)(C)CCC(Nc1ncnc2cnccc12)c1nn[nH]n1 (racemic) [Example 88, [4,4-dimethyl-1-(2H-tetraazol-5-yl)pentyl]-1,3,7-triaza-4-naphthylamine] |
| 284 nM | – | CC(C)(C)CCC(Nc1ncnc2cc(Br)ccc12)c1nn[nH]n1 (racemic) [Example 90, [4,4-dimethyl-1-(2H-tetraazol-5-yl)pentyl](7-bromo-4-quinazolinyl)amine] |
| 116 nM | 325 nM | CC(C)(C)CC[C@H](Nc1ncnc2ccccc12)C(=O)O [Example 8, (S)-5,5-dimethyl-2-(4-quinazolinylamino)hexanoic acid] |
